According to the NIST ThermoML archive (doi:10.1021/je800653d):
± gives the expanded uncertainty stated by the source.

What was measured:
[1] = 101 kPa, Liquid; for speed of sound: Linear variable-path acoustic interferometer; for viscosity: Capillary tube (Ostwald / Ubbelohde) method
[2] = xn = mol fraction of the nth substance listed; settings: 101 kPa, Liquid, x2 = 0; for speed of sound: Linear variable-path acoustic interferometer; for viscosity: Capillary tube (Ostwald / Ubbelohde) method

Compound	mass density ([1]; 298.15 K)	speed of sound ([1]; 298.15 K)	mass density ([1]; 303.15 K)	viscosity ([1]; 303.15 K)	speed of sound ([1]; 303.15 K)	mass density ([1]; 308.15 K)	viscosity ([1]; 308.15 K)	speed of sound ([1]; 308.15 K)	mass density ([1]; 313.15 K)	viscosity ([1]; 313.15 K)	speed of sound ([1]; 313.15 K)	speed of sound ([2]; 298.15 K)	mass density ([2]; 298.15 K)	viscosity ([2]; 303.15 K)	speed of sound ([2]; 303.15 K)	mass density ([2]; 303.15 K)	viscosity ([2]; 308.15 K)	speed of sound ([2]; 308.15 K)	mass density ([2]; 308.15 K)	viscosity ([2]; 313.15 K)	also measured
CCCCOC(C)=O [butyl ethanoate]	875.6 ± 0.7 kg/m3	1203 ± 5 m/s	871.6 ± 0.8 kg/m3	0.6072 ± 0.0061 mPa·s	1176 ± 5 m/s	867.1 ± 0.8 kg/m3	0.5687 ± 0.0057 mPa·s	1155 ± 5 m/s	862 ± 0.8 kg/m3	0.534 ± 0.0054 mPa·s	1135 ± 5 m/s										
CCCCOC(C)=O [butyl ethanoate] + O=S1(=O)CCCC1												1203 ± 5 m/s	875.6 ± 0.7 kg/m3	0.6072 ± 0.0061 mPa·s	1176 ± 5 m/s	871.6 ± 0.8 kg/m3	0.5687 ± 0.0057 mPa·s	1155 ± 5 m/s	867.1 ± 0.8 kg/m3	0.534 ± 0.0054 mPa·s	speed of sound ([2]; 313.15 K): 1135 ± 5 m/s; mass density ([2]; 313.15 K): 862 ± 0.8 kg/m3
CCOC(C)=O [ethyl acetate]	895.1 ± 0.8 kg/m3	1142 ± 5 m/s	889.4 ± 0.8 kg/m3	0.3806 ± 0.0041 mPa·s	1122 ± 5 m/s	883.9 ± 0.8 kg/m3	0.3622 ± 0.004 mPa·s	1101 ± 5 m/s	875.8 ± 0.8 kg/m3	0.3426 ± 0.0038 mPa·s	1082 ± 5 m/s										
CCOC(C)=O [ethyl acetate] + O=S1(=O)CCCC1												1142 ± 5 m/s	895.1 ± 0.8 kg/m3	0.3806 ± 0.0041 mPa·s	1122 ± 5 m/s	889.4 ± 0.8 kg/m3	0.3622 ± 0.004 mPa·s	1101 ± 5 m/s	883.9 ± 0.8 kg/m3	0.3426 ± 0.0038 mPa·s	speed of sound ([2]; 313.15 K): 1082 ± 5 m/s; mass density ([2]; 313.15 K): 875.8 ± 0.8 kg/m3
CCCOC(C)=O [propyl ethanoate]	883.7 ± 0.7 kg/m3	1156 ± 5 m/s	877.7 ± 0.8 kg/m3	0.4878 ± 0.0054 mPa·s	1149 ± 5 m/s	873.1 ± 0.8 kg/m3	0.4595 ± 0.0048 mPa·s	1139 ± 5 m/s	866.7 ± 0.8 kg/m3	0.4329 ± 0.0046 mPa·s	1126 ± 5 m/s										
CCCOC(C)=O [propyl ethanoate] + O=S1(=O)CCCC1												1156 ± 5 m/s	883.7 ± 0.7 kg/m3	0.4878 ± 0.0054 mPa·s	1149 ± 5 m/s	877.7 ± 0.8 kg/m3	0.4595 ± 0.0048 mPa·s	1139 ± 5 m/s	873.1 ± 0.8 kg/m3	0.4329 ± 0.0046 mPa·s	speed of sound ([2]; 313.15 K): 1126 ± 5 m/s; mass density ([2]; 313.15 K): 866.7 ± 0.8 kg/m3
O=S1(=O)CCCC1 [sulfolane]	1263.9 ± 1.3 kg/m3	1601 ± 7 m/s	1261.8 ± 1.3 kg/m3	10.03 ± 0.079 mPa·s	1588 ± 7 m/s	1257 ± 1.3 kg/m3	8.795 ± 0.07 mPa·s	1576 ± 7 m/s	1251.6 ± 1.3 kg/m3	7.837 ± 0.063 mPa·s	1558 ± 7 m/s										
